The text below walks through data of patent publication US8592469B2, “Diazonamide analogs” (Joyant Pharmaceuticals, Inc., priority 2012, dated 2013).

In one assay the test system is A2058 cells. The assay can be described thus: Cell viability assay (Cell-Titer-Glo) in A2058 cells. Format: cell-based. To be noted: Homo sapiens, 48 hour treatment, test compounds 1 nM to 1 μM. The protocol: (§1) Cell viability assays were run using standard protocols known to those of skill in art. Cells were plated in 96 well plates at the density of 3,000-10,000 cells per well. Twenty four hours later, cells were treated with increasing concentration of test compounds (1 nM to 1 μM). After another 48 hour, cell survival was measured using Cell-Titer-Glo® reagent (Promega) following the protocol provided by the manufacture. The IC50 value was determined as the concentration of test compound that kills 50% of the cell population.
(§2) Cell viability data generated according to the protocol described above was generated for representative compounds in A2058 and U937 cells. The compounds shown in Table 1 were prepared by the methods described herein for structurally similar compounds. The reference compound was a synthetic diazonamide analog having the structure: […]

Another assay relates to U937 cells. The assay can be described thus: Cell viability assay (Cell-Titer-Glo) in U937 cells. Format: cell-based. To be noted: Homo sapiens, U-937, 48 hour treatment, test compounds 1 nM to 1 μM. The procedure:
as §1, §2

On to `CC(C)[C@H](O)C(=O)N[C@H]1Cc2ccc3c(c2)C2(C4=C(c5nc(C6=NCCO6)co5)N=C(O4)[C@H](C(C)C)NC1=O)c1ccccc1N[C@H]2O3` (stereo partly drawn) [Compound 43], for which the IC50 was 22 nM with A2058 cells and 19 nM in the assay with U937 cells.

On to `CC(C)[C@H](O)C(=O)NC1Cc2ccc3c(c2)C2(C4=C(c5nc(COC=O)co5)N=C(O4)[C@H](C(C)C)NC1=O)c1ccccc1N[C@H]2O3` (stereo partly drawn) [Compound 23], for which the IC50 with A2058 cells stood at 57 nM; in the assay with U937 cells it was 21 nM.

Turning to `CC(C)[C@H](O)C(=O)N[C@H]1Cc2ccc3c(c2)[C@]2(C4=C(c5nc(CO)co5)N=C(O4)[C@H](C4CCCCC4)NC1=O)c1ccccc1NC2O3` (stereo partly drawn) [Compound 60], the figures for the IC50 in the assay on A2058 cells and with U937 cells were greater than 1000 nM and 795 nM, respectively.

`COC(=O)c1coc(-c2nc3oc2C24c5cc(ccc5O[C@@H]2N(S(C)(=O)=O)c2ccccc24)C[C@H](NC(=O)[C@@H](O)C(C)C)C(=O)N[C@H]3C(C)C)n1` (stereo partly drawn) [Compound 76]: the IC50 is greater than 1000 nM in the assay on A2058 cells and 614 nM with U937 cells.

Turning to `COC(=O)c1coc(-c2nc3oc2[C@@]24c5ccccc5NC2Oc2ccc(cc24)C[C@H](N(C)C(=O)[C@@H](O)C(C)C)C(=O)N[C@H]3C(C)(C)C)n1` (stereo partly drawn) [Compound 90], the results for the IC50 in the assay with A2058 cells and in the assay on U937 cells were 10.4 nM and 17.1 nM, respectively.

With `CC(=O)c1coc(-c2nc3oc2C24c5ccccc5N[C@H]2Oc2ccc(cc24)C[C@H](NC(=O)[C@@H](O)C(C)C)C(=O)N[C@H]3C(C)C)n1` (stereo partly drawn) [Compound 30], the IC50 with A2058 cells worked out at 60 nM; in the assay with U937 cells it was 13 nM.

Consider `COC(=O)c1coc(-c2nc3oc2CC/C=C/C[C@H](NC(=O)[C@@H](O)C(C)C)C(=O)N[C@H]3C(C)C)n1` [Compound 104], for which the 50% inhibitory concentration (IC50) in the assay on A2058 cells and in the assay on U937 cells was greater than 300 nM each time.

Consider `COC(=O)c1csc(-c2nc3oc2C24c5ccccc5N[C@H]2Oc2ccc(cc24)C[C@H](NC(=O)[C@@H](O)C(C)C)C(=O)N[C@H]3C(C)C)n1` (stereo partly drawn) [Compound 97], for which the IC50 in the assay with A2058 cells was 225 nM; in the assay on U937 cells, 59.5 nM.

Turning to `CC(C)[C@H](O)C(=O)N[C@H]1Cc2ccc3c(c2)C2(C4=C(c5nc(C#N)co5)N=C(O4)[C@H](C(C)(C)C)NC1=O)c1ccccc1N[C@H]2O3` (stereo partly drawn) [Compound 62], the IC50 in the assay on A2058 cells was found to be 2.54 nM; with U937 cells it was 15.6 nM.

On to `CNCc1coc(-c2nc3oc2C24c5ccccc5N[C@H]2Oc2ccc(cc24)C[C@H](NC(=O)[C@@H](O)C(C)C)C(=O)N[C@H]3C(C)C)n1` (stereo partly drawn) [Compound 32], for which the IC50 in the assay on A2058 cells and with U937 cells was greater than 1000 nM in each case.

As for `COC(=O)c1coc(-c2nc3oc2[C@]24c5ccccc5NC2Oc2ccc(cc24)C[C@H](NC(=O)[C@@H](O)C(C)C)C(=O)N[C@H]3C(C)(C)C)n1` (stereo partly drawn) [Compound 103], the IC50 in the assay on A2058 cells was determined as 221 nM; in the assay with U937 cells, 69 nM.

For the compound `Cc1noc(-c2coc(-c3nc4oc3[C@@]35c6ccccc6NC3Oc3ccc(cc35)C[C@H](NC(=O)[C@@H](O)C(C)C)C(=O)N[C@H]4C(C)(C)C)n2)n1` (stereo partly drawn) [Compound 47], the IC50 came out at 7.06 nM in the assay on A2058 cells and 14.2 nM with U937 cells.

As for `CC(C)[C@H](O)C(=O)N[C@H]1Cc2ccc(O)c(c2)[C@]2(CNc3ccccc32)C2=C(c3nc(CO)co3)N=C(O2)[C@H](C(C)C)NC1=O` (single isomer, unassigned) [Compound 102], the IC50 in the assay on A2058 cells is 492 nM; in the assay with U937 cells, 225 nM.

For the compound `CC(C)[C@H](O)C(=O)N[C@H]1CCc2ccc3c(c2)[C@]2(C4=C(c5nc(CO)co5)N=C(O4)[C@H](C(C)(C)C)NC1=O)c1ccccc1NC2O3` (stereo partly drawn) [Compound 75], the IC50 with A2058 cells was 1.89 nM; with U937 cells, 6.55 nM.

With `CC(C)C[C@H](O)C(=O)N[C@H]1Cc2ccc3c(c2)C2(C4=C(c5nc(CO)co5)N=C(O4)[C@H](C(C)C)NC1=O)c1ccccc1N[C@H]2O3` (stereo partly drawn) [Compound 28], the IC50 in the assay with A2058 cells is 143 nM; in the assay on U937 cells it was 112 nM.

Take `COC(=O)c1coc(-c2nc3oc2[C@@]24c5ccccc5NC2Oc2ccc(cc24)C[C@H](NC(=O)[C@@H](O)C(C)C)C(=O)N[C@H]3C)n1` (stereo partly drawn) [Compound 56]: the half-maximal inhibitory concentration (IC50) in the assay on A2058 cells is 968 nM; in the assay on U937 cells it was 588 nM.

Turning to `CC(C)[C@H](O)C(=O)N[C@H]1Cc2ccc3c(c2)C2(C4=C(c5nc(CNS(=O)(=O)c6ccccc6)co5)N=C(O4)[C@H](C(C)C)NC1=O)c1ccccc1N[C@H]2O3` (stereo partly drawn) [Compound 36], the results for the IC50 with A2058 cells and with U937 cells were 194 nM and 209 nM, respectively.

For the compound `CC(C)[C@H](O)C(=O)N(C)[C@H]1Cc2ccc3c(c2)[C@]2(C4=C(c5nc(CO)co5)N=C(O4)[C@H](C(C)C)NC1=O)c1ccccc1NC2O3` (stereo partly drawn) [Compound 89], the IC50 is 3 nM in the assay on A2058 cells and 1 nM with U937 cells.

For `CCCCCCc1cc2cc3c1O[C@@H]1Nc4ccccc4C31c1oc(nc1-c1nc(C(=O)OC)co1)[C@H](C(C)C)NC(=O)[C@@H](NC(=O)[C@@H](O)C(C)C)C2` (stereo partly drawn) [Compound 72], the IC50 with A2058 cells was greater than 300 nM; in the assay with U937 cells it was 213 nM.

Turning to `COC(=O)OCc1coc(-c2nc3oc2C24c5ccccc5N[C@H]2Oc2ccc(cc24)CC(NC(=O)[C@@H](O)C(C)C)C(=O)N[C@H]3C(C)(C)C)n1` (stereo partly drawn) [Compound 26], the IC50 in the assay on A2058 cells turned out to be 3.33 nM; with U937 cells, 2.88 nM.

`COC(=O)c1coc(-c2nc3oc2C24c5cc(ccc5O[C@@H]2N(C)c2ccccc24)C[C@H](NC(=O)[C@@H](O)C(C)C)C(=O)N[C@H]3C(C)C)n1` (stereo partly drawn) [Compound 78]: the IC50 in the assay with A2058 cells turned out to be 114 nM; with U937 cells, 17.4 nM.

Turning to `CC(C)[C@H](O)C(=O)N[C@H]1Cc2ccc3c(c2)C2(C4=C(c5nc(CO)co5)N=C(O4)[C@H](C(C)C)NC1=O)c1ccc(F)cc1N[C@H]2O3` (stereo partly drawn) [Compound 83], the IC50 with A2058 cells is 184 nM; in the assay on U937 cells, 60.6 nM.

Regarding `CC(C)[C@@H]1NC(=O)C(NC(=O)[C@@H](O)C(C)(C)C)Cc2ccc3c(c2)C2(C4=C(c5nc(CO)co5)N=C1O4)c1ccccc1N[C@H]2O3` (stereo partly drawn) [Compound 27], the figures for the IC50 in the assay with A2058 cells and in the assay on U937 cells were 112 nM and 98 nM, respectively.

For `CC(C)[C@H](O)C(=O)N[C@H]1Cc2ccc3c(c2)C2(C4=C(c5nc(CO)cs5)N=C(O4)[C@H](C(C)C)NC1=O)c1ccccc1N[C@H]2O3` (stereo partly drawn) [Compound 98], the values for the IC50 in the assay on A2058 cells and in the assay with U937 cells were 284 nM and 231 nM, respectively.

With `CC(C)[C@H](O)C(=O)N(C)[C@H]1Cc2ccc3c(c2)[C@]2(C4=C(c5nc(C#N)co5)N=C(O4)[C@H](C(C)C)NC1=O)c1ccccc1NC2O3` (stereo partly drawn) [Compound 91], the concentration for half-maximal inhibition (IC50) came to 0.59 nM in the assay on A2058 cells and 1.97 nM in the assay on U937 cells.

As for `CC(C)[C@H](O)C(=O)N[C@H]1Cc2ccc3c(c2)[C@]2(C4=C(c5nc(CO)co5)N=C(O4)[C@H](C)NC1=O)c1ccccc1NC2O3` (stereo partly drawn) [Compound 55], the IC50 with A2058 cells and in the assay on U937 cells was greater than 1000 nM in each case.

For the compound `COC(=O)c1coc(-c2nc3oc2[C@@]24c5ccccc5NC2Oc2ccc(cc24)C[C@H](N(C)C(=O)[C@@H](O)C(C)C)C(=O)N(C)[C@H]3C(C)C)n1` (stereo partly drawn) [Compound 93], the IC50 with A2058 cells was 35.8 nM; in the assay on U937 cells it was 18.6 nM.

Take `CC(C)[C@H](O)C(=O)N[C@H]1Cc2ccc3c(c2)[C@]2(C4=C(c5ccccc5)N=C(O4)[C@H](C(C)C)NC1=O)c1ccccc1NC2O3` (stereo partly drawn) [Compound 96]: the IC50 with A2058 cells and with U937 cells was greater than 1000 nM in each case.

`CC(C)[C@H](O)C(=O)N[C@H]1Cc2ccc3c(c2)[C@]2(C4=C(c5nc(CO)co5)N=C(O4)[C@H](C(C)(C)C)NC1=O)c1ccccc1N[C@@H]2O3` [Compound 57]: the figures for the IC50 in the assay on A2058 cells and with U937 cells were 8.3 nM and 5.3 nM, respectively.

`COC(=O)c1coc(-c2nc3oc2[C@]24c5ccccc5NC2Oc2ccc(cc24)C[C@H](NC(=O)[C@@H](O)C(C)C)C(=O)N(C)[C@H]3C(C)C)n1` (stereo partly drawn) [Compound 94]: the IC50 with A2058 cells and in the assay with U937 cells was greater than 300 nM each time.

As to `CC(=O)Nc1oc(-c2nc3oc2C24c5ccccc5N[C@H]2Oc2ccc(cc24)CC(NC(=O)[C@@H](O)C(C)C)C(=O)N[C@H]3C(C)C)nc1C#N` (stereo partly drawn) [Compound 38], the IC50 in the assay with A2058 cells and in the assay on U937 cells was greater than 1000 nM each time.

Turning to `CCC(C)(C)C(=O)NC1Cc2ccc3c(c2)C2(C4=C(c5nc(C#N)co5)N=C(O4)[C@H](C(C)(C)C)NC1=O)c1ccccc1N[C@H]2O3` (stereo partly drawn) [Compound 69], the IC50 was 95.5 nM with A2058 cells and 225 nM with U937 cells.

Turning to `CC(C)[C@H](O)C(=O)N[C@H]1Cc2ccc3c(c2)[C@]2(C4=C(c5nc(C#N)co5)N=C(O4)[C@H](C(C)(C)C)NC1=O)c1cc(F)ccc1N[C@@H]2O3` [Compound 87], the IC50 is less than 0.3 nM in the assay with A2058 cells and 1.9 nM in the assay with U937 cells.

`CC(C)[C@H](O)C(=O)N[C@H]1Cc2ccc3c(c2)[C@]2(C4=C(c5nc(CO)co5)N=C(O4)[C@H](C(C)(C)C)NC1=O)c1cc(F)ccc1N[C@@H]2O3` [Compound 85]: the IC50 with A2058 cells was 0.47 nM; in the assay with U937 cells, 0.74 nM.

Take `COC(=O)c1coc(-c2nc3oc2[C@@]24c5ccccc5NC2Oc2ccc(cc24)C[C@H](N(C)C(=O)[C@@H](O)C(C)C)C(=O)N[C@H]3C(C)C)n1` (stereo partly drawn) [Compound 88]: the figures for the IC50 in the assay on A2058 cells and with U937 cells were 0.8 nM and 0.6 nM, respectively.

Turning to `CC(=O)OCc1coc(-c2nc3oc2C24c5ccccc5N[C@H]2Oc2ccc(cc24)C[C@H](NC(=O)[C@@H](O)C(C)C)C(=O)N[C@H]3C(C)C)n1` (stereo partly drawn) [Compound 22], the values for the half-maximal inhibitory concentration (IC50) with A2058 cells and in the assay with U937 cells were 52 nM and 19 nM, respectively.

Consider `CC(C)[C@H](O)C(=O)N[C@H]1Cc2ccc3c(c2)C2(C4=C(c5nc(CN)co5)N=C(O4)[C@H](C(C)C)NC1=O)c1ccccc1N[C@H]2O3` (stereo partly drawn) [Compound 33], for which the IC50 in the assay with A2058 cells and with U937 cells was greater than 1000 nM each time.

Consider `CCC(O)(CC)C(=O)N[C@H]1Cc2ccc3c(c2)C2(C4=C(c5nc(CO)co5)N=C(O4)[C@H](C(C)(C)C)NC1=O)c1ccccc1N[C@H]2O3` (stereo partly drawn) [Compound 64], for which the values for the IC50 in the assay with A2058 cells and with U937 cells were 43.2 nM and 45.9 nM, respectively.

On to `COC(=O)OCc1coc(-c2nc3oc2C24c5ccccc5N[C@H]2Oc2ccc(cc24)CC(NC(=O)[C@@H](O)C(C)C)C(=O)N[C@H]3C(C)C)n1` (stereo partly drawn) [Compound 24], for which the IC50 worked out at 26 nM with A2058 cells and 19.7 nM with U937 cells.
